Laboratory results as given in ChEMBL document CHEMBL2163313, “Shape-based reprofiling of FDA-approved drugs for the H₁ histamine receptor” (J Med Chem, 2012).
Active and inactive are the calls of the source. No cut-off for these calls is given here.

What was measured:
[1] = tested on: HeLa; assay: Antagonist activity at P2Y receptor in human HeLa cells assessed as inhibition of ATP-induced Ca2+ release at 100 uM by using fura-2AM-based fluorescence assay; format: functional, cell-based
[2] = target: T1, Histamine H1 receptor (Homo sapiens, UniProt P35367); assay: Antagonist activity at histamine H1 receptor in human HeLa cells assessed as inhibition of histamine-induced Ca2+ release at 100 uM by using fura-2AM-based fluorescence assay; format: functional, cell-based
[3] = target: T1, Histamine H1 receptor; assay: Antagonist activity at H1 receptor in human HeLa cells assessed as inhibition of histamine-induced Ca2+ release by using fura-2AM-based fluorescence assay; format: functional, cell-based
[4] = target: Histamine H1 receptor (Rattus norvegicus, UniProt P31390); format: cell membranes, Sprague-Dawley, Brain, Membrane
Histamine H1 receptor (Rattus norvegicus, UniProt P31390), sequence (P31390 whole entry): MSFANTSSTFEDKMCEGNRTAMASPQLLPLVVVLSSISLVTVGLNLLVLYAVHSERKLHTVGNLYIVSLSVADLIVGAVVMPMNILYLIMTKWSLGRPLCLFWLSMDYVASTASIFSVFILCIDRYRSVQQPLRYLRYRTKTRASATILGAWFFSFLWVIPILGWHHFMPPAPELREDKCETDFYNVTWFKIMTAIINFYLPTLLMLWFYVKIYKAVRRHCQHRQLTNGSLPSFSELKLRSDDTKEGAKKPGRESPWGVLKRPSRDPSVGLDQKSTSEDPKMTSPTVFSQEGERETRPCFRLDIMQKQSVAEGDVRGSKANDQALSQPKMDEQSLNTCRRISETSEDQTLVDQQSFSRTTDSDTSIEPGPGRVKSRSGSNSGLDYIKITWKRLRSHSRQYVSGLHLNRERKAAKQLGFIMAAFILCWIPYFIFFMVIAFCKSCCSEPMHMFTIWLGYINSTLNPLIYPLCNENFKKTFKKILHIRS

T1 sequence (P35367 whole entry): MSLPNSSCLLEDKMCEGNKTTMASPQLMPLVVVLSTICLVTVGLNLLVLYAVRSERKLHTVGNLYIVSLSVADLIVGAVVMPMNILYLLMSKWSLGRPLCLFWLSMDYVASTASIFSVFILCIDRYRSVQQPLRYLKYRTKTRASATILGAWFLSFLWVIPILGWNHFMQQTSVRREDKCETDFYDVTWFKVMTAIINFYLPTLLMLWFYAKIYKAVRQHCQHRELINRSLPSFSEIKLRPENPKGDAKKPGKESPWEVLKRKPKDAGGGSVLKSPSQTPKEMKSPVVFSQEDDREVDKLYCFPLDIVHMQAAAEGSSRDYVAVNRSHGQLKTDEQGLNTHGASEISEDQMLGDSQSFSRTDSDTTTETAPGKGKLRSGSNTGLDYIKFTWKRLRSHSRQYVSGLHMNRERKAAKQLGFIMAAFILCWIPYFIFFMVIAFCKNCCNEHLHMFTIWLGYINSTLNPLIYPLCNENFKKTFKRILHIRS

Row | Structure (SMILES) | inhibition [1] | inhibition [2] | IC50 [3] | IC50 [4]
1 | NC(=O)OCC(COC(N)=O)c1ccccc1 | inactive |  |  | 
2 | OC(CCN1CCCCC1)(c1ccccc1)C1CC2C=CC1C2 (centres undefined) | Active | Active |  | 
3 | CCN(CC)CCOC(=O)C(c1ccccc1)c1ccccc1 [ADIPHENINE] |  |  | 112 µM | 17 µM
4 | CN(C)CC/C=C1/c2ccccc2Sc2ccc(Cl)cc21 [CHLORPROTHIXENE] |  |  |  | 0.00107 µM
5 | CN1[C@@H](CC(=O)c2ccccc2)CCC[C@H]1C[C@H](O)c1ccccc1 [LOBELINE] |  |  | 44.7 µM | 11.2 µM
6 | OC(CCN1CCCC1)(c1ccccc1)C1CCCCC1 (centres undefined) [PROCYCLIDINE] |  |  |  | 6.76 µM
